Measured values from US20250144094A1 (Erasca, Inc., priority 2021, published 2025).

These compounds were tested against Recombinant human ULK1 (1-649) (Homo sapiens (Human), UniProt O75385) (assay: ULK1 ADP Glo kinase activity assay (MBP substrate)). Conditions: 25° C., 40 minutes, read-out: ULK1 biochemical IC50.
In short: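 GST-tagged ULK1 (1-649) from Sf9 cells phosphorylated MBP, with ATP, for 40 min at 25 °C across a 12-point series from 10 uM. ADP formed was quantified by ADP-Glo luminescence against DMSO controls. IC50 came from a four-parameter variable-slope fit of log concentration.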

Sequence of Recombinant human ULK1 (1-649) (O75385 1-649): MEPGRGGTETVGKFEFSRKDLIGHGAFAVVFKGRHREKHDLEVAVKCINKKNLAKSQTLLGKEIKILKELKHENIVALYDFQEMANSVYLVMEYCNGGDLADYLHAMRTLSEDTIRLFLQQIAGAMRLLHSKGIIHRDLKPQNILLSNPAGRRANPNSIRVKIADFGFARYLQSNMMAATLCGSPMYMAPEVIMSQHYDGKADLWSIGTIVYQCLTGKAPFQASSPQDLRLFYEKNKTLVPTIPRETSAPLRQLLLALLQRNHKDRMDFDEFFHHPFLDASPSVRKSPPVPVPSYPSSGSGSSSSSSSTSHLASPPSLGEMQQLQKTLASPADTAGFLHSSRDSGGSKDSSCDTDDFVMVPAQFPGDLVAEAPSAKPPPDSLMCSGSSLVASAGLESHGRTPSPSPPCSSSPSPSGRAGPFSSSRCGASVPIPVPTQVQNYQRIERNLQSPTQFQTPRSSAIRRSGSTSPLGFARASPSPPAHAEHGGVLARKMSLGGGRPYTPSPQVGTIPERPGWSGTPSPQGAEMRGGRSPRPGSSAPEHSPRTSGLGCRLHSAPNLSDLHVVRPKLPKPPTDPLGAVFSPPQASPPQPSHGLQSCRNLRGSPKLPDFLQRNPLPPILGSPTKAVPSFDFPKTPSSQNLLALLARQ

Row | SMILES | IC50
1 | CS(=O)(=O)c1csc(-c2nc(Nc3cc4c(cc3Cl)CNCC4)ncc2C2CC2)c1 [Example 89, 7-chloro-N-(5-cyclopropyl-4-(4-(methylsulfonyl)thiophen-2-yl)pyrimidin-2-yl)-1,2,3,4-tetrahydroisoquinolin-6-amine] | 10 to 50 nM
2 | CN1CCc2cc(Nc3ncc(C(F)(F)F)c(-c4cc(S(C)(=O)=O)c(C5CCOCC5)s4)n3)c(Cl)cc2C1 [Example 87, 7-chloro-2-methyl-N-(4-(4-(methylsulfonyl)-5-(tetrahydro-2H-pyran-4-yl)thiophen-2-yl)-5-(trifluoromethyl)pyrimidin-2-yl)-1,2,3,4-tetrahydroisoquinolin-6-amine] | ≤ 10 nM
3 | COCCOc1sc(-c2nc(Nc3cc4c(cc3Cl)CNCC4)ncc2C(F)(F)F)cc1S(C)(=O)=O [Example 56, 7-chloro-N-(4-(5-(2-methoxyethoxy)-4-(methylsulfonyl)thiophen-2-yl)-5-(trifluoromethyl)pyrimidin-2-yl)-1,2,3,4-tetrahydroisoquinolin-6-amine] | ≤ 10 nM
4 | CCS(=O)(=O)c1csc(-c2nc(Nc3cc4c(cc3Cl)CNCC4)ncc2C(F)(F)F)c1 [Example 51, 7-chloro-N-(4-(4-(ethylsulfonyl)thiophen-2-yl)-5-(trifluoromethyl)pyrimidin-2-yl)-1,2,3,4-tetrahydroisoquinolin-6-amine] | ≤ 10 nM
5 | CS(=O)(=O)c1csc(-c2nc(Nc3cc4c(cc3F)CN(C3CC3)CC4)ncc2C(F)(F)F)c1 [Example 118, 2-cyclopropyl-7-fluoro-N-[4-(4-methylsulfonyl-2-thienyl)-5-(trifluoromethyl)pyrimidin-2-yl]-3,4-dihydro-1H-isoquinolin-6-amine] | 10 to 50 nM
6 | CS(=O)(=O)c1csc(-c2nc(Nc3cc4c(cc3Cl)CCNC4)ncc2C(F)(F)F)c1 [Example 99, 6-chloro-N-(4-(4-(methylsulfonyl)thiophen-2-yl)-5-(trifluoromethyl)pyrimidin-2-yl)-1,2,3,4-tetrahydroisoquinolin-7-amine] | ≤ 10 nM
7 | CP(C)(=O)c1csc(-c2nc(Nc3cc4c(cc3Cl)CNCC4)ncc2C(F)(F)F)c1 [Example 38, (5-(2-((7-Chloro-1,2,3,4-tetrahydroisoquinolin-6-yl)amino)-5-(trifluoromethyl)pyrimidin-4-yl)thiophen-3-yl)dimethylphosphine oxide] | 10 to 50 nM
8 | CS(=O)(=O)c1csc(-c2nc(Nc3cc4c(cc3F)CNCC4)ncc2C(F)(F)F)c1 [Example 91, 7-fluoro-N-(4-(4-(methylsulfonyl)thiophen-2-yl)-5-(trifluoromethyl)pyrimidin-2-yl)-1,2,3,4-tetrahydroisoquinolin-6-amine] | ≤ 10 nM
9 | CN1CCc2cc(Nc3ncc(C(F)(F)F)c(-c4cc(S(C)(=O)=O)c(C(=O)N5CCOCC5)s4)n3)c(Cl)cc2C1 [Example 61, (5-(2-((7-chloro-2-methyl-1,2,3,4-tetrahydroisoquinolin-6-yl)amino)-5-(trifluoromethyl)pyrimidin-4-yl)-3-(methylsulfonyl)thiophen-2-yl)(morpholino)methanone] | 100 to 500 nM
10 | CN1CCC(n2cc(Nc3ncc(C(F)(F)F)c(-c4cc(S(C)(=O)=O)cs4)n3)c(C3CC3)n2)CC1 [Example 129, N-(3-cyclopropyl-1-(1-methylpiperidin-4-yl)-1H-pyrazol-4-yl)-4-(4-(methylsulfonyl)thiophen-2-yl)-5-(trifluoromethyl)pyrimidin-2-amine] | ≤ 10 nM
11 | CCc1cc(N2CCN(C)CC2)ccc1Nc1ncc(C(F)(F)F)c(-c2cc(C(N)=O)cs2)n1 [Example 37, 5-(2-((2-Ethyl-4-(4-methylpiperazin-1-yl)phenyl)amino)-5-(trifluoromethyl)pyrimidin-4-yl)thiophene-3-carboxamide] | ≤ 10 nM

The remaining lines, values ahead:

Row | IC50 | SMILES
12 | ≤ 10 nM | CN1CCCc2sc(-c3nc(Nc4cc5c(cc4Cl)CNCC5)ncc3C(F)(F)F)cc2C1=O [Example 47, 2-(2-((7-chloro-1,2,3,4-tetrahydroisoquinolin-6-yl)amino)-5-(trifluoromethyl)pyrimidin-4-yl)-5-methyl-5,6,7,8-tetrahydro-4H-thieno[3,2-c]azepin-4-one]
13 | ≤ 10 nM | O=S1(=O)CCCOc2sc(-c3nc(Nc4cc5c(cc4Cl)CNCC5)ncc3C(F)(F)F)cc21 [Example 60, 2-(2-((7-chloro-1,2,3,4-tetrahydroisoquinolin-6-yl)amino)-5-(trifluoromethyl)pyrimidin-4-yl)-6,7-dihydro-5H-thieno[2,3-b][1,4]oxathiepine 4,4-dioxide]
14 | ≤ 10 nM | CS(=O)(=O)c1cc(-c2nc(Nc3cc4c(cc3Cl)CNCC4)ncc2C(F)(F)F)sc1C1=CCS(=O)(=O)CC1 [Example 78, 4-(5-(2-((7-chloro-1,2,3,4-tetrahydroisoquinolin-6-yl)amino)-5-(trifluoromethyl)pyrimidin-4-yl)-3-(methylsulfonyl)thiophen-2-yl)-3,6-dihydro-2H-thiopyran 1,1-dioxide]
15 | ≤ 10 nM | CCc1cc2c(cc1Nc1ncc(C(F)(F)F)c(-c3cc4c(s3)CCNC4=O)n1)CCNC2 [Example 34, 2-(2-((7-ethyl-1,2,3,4-tetrahydroisoquinolin-6-yl)amino)-5-(trifluoromethyl)pyrimidin-4-yl)-6,7-dihydrothieno[3,2-c]pyridin-4(5H)-one]
16 | ≤ 10 nM | O=C1NCCc2sc(-c3nc(Nc4cc5c(cc4Cl)CNCC5)ncc3C(F)(F)F)cc21 [Example 4, 2-(2-((7-chloro-1,2,3,4-tetrahydroisoquinolin-6-yl)amino)-5-(trifluoromethyl)pyrimidin-4-yl)-6,7-dihydrothieno[3,2-c]pyridin-4(5H)-one]
17 | ≤ 10 nM | O=C1NCCc2sc(-c3nc(Nc4cc5c(cc4Cl)CNC5)ncc3C(F)(F)F)cc21 [Example 33, 2-(2-((6-Chloroisoindolin-5-yl)amino)-5-(trifluoromethyl)pyrimidin-4-yl)-6,7-dihydrothieno[3,2-c]pyridin-4(5H)-one]
18 | ≤ 10 nM | O=C1NCCS(=O)(=O)c2cc(-c3nc(Nc4cc5c(cc4Cl)CNCC5)ncc3C(F)(F)F)sc21 [Example 82, 7-[2-[(7-chloro-1,2,3,4-tetrahydroisoquinolin-6-yl)amino]-5-(trifluoromethyl)pyrimidin-4-yl]-1,1-dioxo-3,4-dihydro-2H-thieno[2,3-f][1,4]thiazepin-5-one]
19 | 10 to 50 nM | O=C1NCCS(=O)(=O)c2cc(-c3nc(Nc4cc5c(cc4Cl)CN(C4CC4)CC5)ncc3C(F)(F)F)sc21 [Example 126, 7-(2-((7-chloro-2-cyclopropyl-1,2,3,4-tetrahydroisoquinolin-6-yl)amino)-5-(trifluoromethyl)pyrimidin-4-yl)-3,4-dihydrothieno[2,3-f][1,4]thiazepin-5(2H)-one 1,1-dioxide]
20 | ≤ 10 nM | CN1CCc2cc(Nc3ncc(C(F)(F)F)c(-c4cc5c(s4)C(=O)NCCS5(=O)=O)n3)c(Cl)cc2C1 [Example 86, 7-(2-((7-chloro-2-methyl-1,2,3,4-tetrahydroisoquinolin-6-yl)amino)-5 (trifluoromethyl)pyrimidin-4-yl)-3,4-dihydrothieno[2,3-f][1,4]thiazepin-5(2H)-one 1,1-dioxide]
21 | ≤ 10 nM | CS(=O)(=O)c1cc(-c2nc(Nc3cc4c(cc3Cl)CNCC4)ncc2C(F)(F)F)sc1C1=CCOCC1 [Example 75, 7-chloro-N-(4-(5-(3,6-dihydro-2H-pyran-4-yl)-4-(methylsulfonyl)thiophen-2-yl)-5-(trifluoromethyl)pyrimidin-2-yl)-1,2,3,4-tetrahydroisoquinolin-6-amine]
